PMC8073777, “Design, Synthesis, Biological Evaluation and In Silico Studies of Pyrazole-Based NH2-Acyl Oseltamivir Analogues as Potent Neuraminidase Inhibitors” (Pharmaceuticals, 2021)

target: A/H3N2 influenza NA (Influenza A virus (H3N2), UniProt Q91IQ5); type: biochemical, A/H3N2 influenza virus (clinical isolate from Hong Kong); conditions: 10 µM

`CCC(CC)O[C@@H]1C=C(C(=O)O)C[C@H](NC(=O)c2cc(-c3ccc(F)cc3)n[nH]2)[C@H]1NC(C)=O` [Compound 12c, (3R,4R,5S)-4-acetamido-5-(3-(4-fluorophenyl)-1H-pyrazole-5-carboxamido)-3-(pentan-3-yloxy) cyclohex-1-ene-1-carboxylic acid] was tested. Which “Inhibitory rate against A/H3N2 influenza NA” value (shortened to “Inhibitory rate”) did it give?
Its value is 56.45%.

How did the “Inhibitory rate” value turn out when `CCC(CC)O[C@@H]1C=C(C(=O)O)C[C@H](NC(=O)c2cnn(-c3ccc(Cl)cc3)c2)[C@H]1NC(C)=O` [Compound 6k, (3R,4R,5S)-4-acetamido-5-(1-(4-chlorophenyl)-1H-pyrazole-4-carboxamido)-3-(pentan-3-yloxy) cyclohex-1-ene-1-carboxylic acid] was run?
The value was 25.67%.

How did the “Inhibitory rate” value turn out when `CCC(CC)O[C@@H]1C=C(C(=O)O)C[C@H](NC(=O)c2cc(C3CC3)nn2-c2ccccc2)[C@H]1NC(C)=O` [Compound 26a, (3R,4R,5S)-4-acetamido-5-(3-cyclopropyl-1-phenyl-1H-pyrazole-5-carboxamido)-3-(pentan-3-yloxy) cyclohex-1-ene-1-carboxylic acid] was run?
The value was 30.41%.
